Results from article PMC8843100, “Development of newly synthesised quinazolinone-based CDK2 inhibitors with potent efficacy against melanoma” (Journal of Enzyme Inhibition and Medicinal Chemistry, 2022).

Experiments:
IGROV1 = test: NCI-60 single dose screen, sulforhodamine B; assay type: cell-based, human; details: Ovarian cancer IGROV1; single dose 10^−5 M
Protocol: (§1) In this research, all of the newly synthesised quinazolinones were subjected to in vitro anticancer screening by the National Cancer Institute (USA) against 60 different human cell lines including leukaemia, non-small cell lung cancer, colon cancer, CNS cancer, melanoma, ovarian cancer, renal cancer, prostate cancer, and breast cancer. The tested compounds were evaluated at a single dose (10^−5 M). […] Regarding the benzenesulfonamide counterparts, the introduction of an electron-withdrawing group on the benzenesulfonamide moiety increased the inhibitory activity on the glioblastoma cell line SNB-75 as depicted by the chloro derivative 5c (GI% = 63.09) which was higher than that of the unsubstituted derivative 5a (GI% = 40.06) and the methyl derivative 5b (GI% = 33.03).
(§2) 1. Cytotoxicity screening against a panel of 60 human tumor cell lines
(§3) All the compounds were selected for NCI-60 Human Tumor Cell Lines Screen by the Developmental Therapeutics Program (DTP) at the National Cancer Institute (NCI), Maryland, USA. The operation of this screen utilizes 60 different human tumor cell lines, representing leukemia, non-small-cell lung cancer, colon cancer, CNS cancer, melanoma, ovarian cancer, renal cancer, prostate cancer and breas t cancer.
(§4) The compounds were supplied as dry powder and a single concentration is tested in all 60 cell lines at a single dose of 10 µM solution in dimethyl sulfoxide (DMSO) using Sulforhodamine B assay. Briefly, cells are seeded in 96 well plates at an appropriate density and incubated for 1 day. After 1 day, some of the plates are processed to determine the density time zero. To the remaining plates, compounds are added at 10 µM concentration. Plates are incubated a further 2 days, then fixed and staine d with sulphorhodamine B. Growth inhibition is calculated relative to cells without drug treatment and the time zero control. The use of a time zero control allows the determination of cell kill as well as net growth inhibition.
(§5) 2. Detection of IC50 against MDA-MB-435, SNB-75 cell lines and normal cell line WI -38.
(§6) Antiproliferative activities of 5c in melanoma cell line MDA-MB-435, glioblastoma cell line SNB-75 and normal cell line WI -38 and that of 8a in melanoma cell line MDA-MB-435 and normal cell line WI-38 were measured spectrophotometrically using in vitro MTT based toxicology assay kit (catalog no. M -5655, M-8910) (Sigma Aldrich), according to the manufacturer’s protocol. The three examined cell lin es were obtained from American Type Culture Collection (ATCC). Briefly, cells were platted (cells density 1.2 – 1.8 × 10,000 cells/well) in a volume of 100 µl complete growth medium + 100 μl of the tested compound per well in a 96-well plate for 48 h before the MTT assay. The cultures were removed from incubator into laminar flow hood then each vial of MTT [M-5655] should be reconstituted with 3 ml of medium or balanced salt solution without phenol red and serum. Reconstituted MTT was added in an amount equal to […]

MDA-MB-468 = test: NCI-60 single dose screen, sulforhodamine B; assay type: cell-based, human; details: Breast cancer MDA-MB-468; single dose 10^−5 M
Protocol: as §1, §2, §3, §4, §5, §6

HL-60(TB) = test: NCI-60 single dose screen, sulforhodamine B; assay type: cell-based, human; details: Leukaemia HL-60(TB); single dose 10^−5 M
Protocol: as §1, §2, §3, §4, §5, §6

MCF7 = test: NCI-60 single dose screen, sulforhodamine B; assay type: cell-based, human; details: Breast cancer MCF7; single dose 10^−5 M
Protocol: as §1, §2, §3, §4, §5, §6

SK-OV-3 = test: NCI-60 single dose screen, sulforhodamine B; assay type: cell-based, human; details: Ovarian cancer SK-OV-3; single dose 10^−5 M
In short: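 Compounds were tested at a single 10 µM dose (DMSO solution) after cells had been seeded and grown for 1 day. Following 2 further days of exposure, cells were fixed and stained with sulforhodamine B. Growth inhibition is relative to untreated cells and a time-zero control.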

CDK2 = target: T1, CDK2 (Homo sapiens, UniProt P24941); test: CDK2 inhibition assay, colorimetric 96-well kit (BPS Bioscience); assay type: biochemical; details: in vitro kinase inhibition; read-out: IC50 (µM) ± SD against CDK2
T1 construct: purchased BPS Bioscience 79599
Protocol: It was reported that CDK2 is overexpressed in melanoma[44]^,[45].
CDK2 enzyme inhibition activity was measured for the quinazolinones 5c and 8a using a colorimetric 96-well CDK2 assay kit (BPS Bioscience) (catalog no. 79599), according to the manufacturer's protocol. All the IC50 values were calculated using GraphPad Prism 7.0 Software.
Figure S1. The pharmacokinetic profile of compound 5c using SwissADME web server.
(1 picture or pasted object on this page, not shown here)

[1] = system: melanoma cell line MDA-MB-435; test: Detection of IC50, MTT assay; assay type: cell-based; details: Homo sapiens, read-out: IC50 (µM)±SD, 50% inhibition of cell viability, Melanoma MDA-MB-435, 48 h
Protocol: as §5
as §6, with “96-well” for “96-well plate for 48 h before the MTT assay. The cultures were removed from incubator into laminar flow hood then each vial of MTT [M-5655] should be reconstituted with 3 ml of medium or balanced salt solution without phenol red and serum. Reconstituted MTT was added in an amount equal to”
(§7) salt solution without phenol red and serum.

[2] = system: normal fibroblast cells WI-38; test: Cytotoxic activity in normal cells, MTT assay; assay type: cell-based; details: Homo sapiens, WI-38 normal cells, 48 h, read-out: IC50 (µM) ± SD WI-38
Protocol: as §5
as §6, with “96-well” for “96-well plate for 48 h before the MTT assay. The cultures were removed from incubator into laminar flow hood then each vial of MTT [M-5655] should be reconstituted with 3 ml of medium or balanced salt solution without phenol red and serum. Reconstituted MTT was added in an amount equal to”
as §7

| SMILES | GI% at 10^−5 M (IGROV1) | GI% at 10^−5 M (MDA-MB-468) | GI% at 10^−5 M (HL-60(TB)) | GI% at 10^−5 M (MCF7) | GI% at 10^−5 M (SK-OV-3) [%] | IC50 (CDK2) [µM] | IC50 [1] [µM] | IC50 [2] [µM] |
| --- | --- | --- | --- | --- | --- | --- | --- | --- |
| COc1cc(C=Nn2c(COc3ccccc3)nc3ccccc3c2=O)ccc1O [Compound 6a, 3-((4-hydroxy-3-methoxybenzylidene)amino)-2-(phenoxymethyl)quinazolin-4(3H)-one] | – (– means GI < 10%) | – (– means GI < 10%) | – (– means GI < 10%) | 22.94% |  |  |  |  |
| Cc1ccc(S(=O)(=O)Nn2c(COc3ccccc3)nc3ccccc3c2=O)cc1 [Compound 5b, 4-methyl-N-(4-oxo-2-(phenoxymethyl)quinazolin-3(4H)-yl)benzenesulfonamide] | 21.58% | – (– means GI < 10%) | – (– means GI < 10%) | 11.54% | −4.74 |  |  |  |
| O=C(CNn1c(COc2ccccc2)nc2ccccc2c1=O)Nc1ccccc1 [Compound 4a, 2-((4-oxo-2-(phenoxymethyl)quinazolin-3(4H)-yl)amino)-N-phenylacetamide] | 19.54% | – (– means GI < 10%) | – (– means GI < 10%) | 15.7% |  |  |  |  |
| COc1ccc(NC(=O)CNn2c(COc3ccccc3)nc3ccccc3c2=O)cc1 [Compound 4b, N-(4-methoxyphenyl)-2-((4-oxo-2-(phenoxymethyl)quinazolin-3(4H)-yl)amino)acetamide] | 6.78% | – (– means GI < 10%) | – (– means GI < 10%) | 13.20% |  |  |  |  |
| O=C(CNn1c(COc2ccccc2)nc2ccccc2c1=O)Nc1ccc(Cl)cc1 [Compound 4c, N-(4-chlorophenyl)-2-((4-oxo-2-(phenoxymethyl)quinazolin-3(4H)-yl)amino)acetamide] | 19.62% | 11.13% | – (– means GI < 10%) | 10.05% | 4.95 |  |  |  |
| O=c1c2ccccc2nc(COc2ccccc2)n1NS(=O)(=O)c1ccc(Cl)cc1 [Compound 5c, 4-chloro-N-(4-oxo-2-(phenoxymethyl)quinazolin-3(4H)-yl)benzenesulfonamide] | 38.26% | 59.61% | 24.32% | 58.11% |  | 0.63 ± 0.022 | 3.03 ± 0.38 | 62.5 ± 3.5 |
| O=c1c2ccccc2nc(COc2ccccc2)n1NS(=O)(=O)c1ccccc1 [Compound 5a, N-(4-oxo-2-(phenoxymethyl)quinazolin-3(4H)-yl)benzenesulfonamide] | 16.06% | – (– means GI < 10%) | – (– means GI < 10%) | 14.31% |  |  |  |  |
| CN1CCN(CC(=O)Nn2c(COc3ccccc3)nc3ccccc3c2=O)CC1 [Compound 8a, 2–(4-methylpiperazin-1-yl)-N-(4-oxo-2-(phenoxymethyl)quinazolin-3(4H)-yl)acetamide] | 26.87% | 49.06% | 19.74% | 57.64% | 22.99 | 1.74 ± 0.062 | 6.22 ± 0.53 | 37.3 ± 2.1 |
| COc1ccc(N2CCN(CC(=O)Nn3c(COc4ccccc4)nc4ccccc4c3=O)CC2)cc1 [Compound 8c, 2–(4-(4-methoxyphenyl)piperazin-1-yl)-N-(4-oxo-2-(phenoxymethyl)quinazolin-3(4H)-yl)acetamide] | – (– means GI < 10%) | – (– means GI < 10%) | – (– means GI < 10%) | – (– means GI < 10%) |  |  |  |  |
| O=c1c2ccccc2nc(COc2ccccc2)n1N=CC=Cc1ccccc1 [Compound 6b, 2-(phenoxymethyl)-3-((3-phenylallylidene)amino)quinazolin-4(3H)-one] | – (– means GI < 10%) | 10.89% | – (– means GI < 10%) | 16.22% |  |  |  |  |
| O=C(CN1CCN(c2ccccc2)CC1)Nn1c(COc2ccccc2)nc2ccccc2c1=O [Compound 8b, N-(4-oxo-2-(phenoxymethyl)quinazolin-3(4H)-yl)-2–(4-phenylpiperazin-1-yl)acetamid] | – (– means GI < 10%) | – (– means GI < 10%) | – (– means GI < 10%) | – (– means GI < 10%) |  |  |  |  |
